In article PMC6397271 (Scientific Reports, 2019):
Converted amounts (≈) assume the structure as drawn. “And” between values parts separate entries of the source, which are not always exact repeats. Identical values can stand only once. Like-named read-outs stand apart in the source and are kept apart here.

Legend:
[1] = test system: S. aureus MRSA hetero-VISA 6347; test: microbe, parasite or virus in culture; assay type: cell-based, Staphylococcus aureus
How it was run: (§1)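 Broth microdilution MIC, resazurin read-out, n=3. Media: cation-adjusted MH broth for MRSA (N315 reference; 6347 clinical h-VISA), BHI broth for enterococci. Growth aerobic, 37 °C, 24 h; inocula titrated by CFU/ml plating.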

S. aureus MRSA 12673 = test: microbe, parasite or virus in culture; assay type: cell-based, Staphylococcus aureus
How it was run: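 MICs were measured by microbroth dilution against MRSA in cation-adjusted Mueller-Hinton broth and enterococci in Brain Heart Infusion broth. Viability was read with resazurin dye.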

S. aureus MRSA N315 = test: microbe, parasite or virus in culture; assay type: cell-based, Staphylococcus aureus
How it was run: as §1

[2] = Brain concentration by LC/MS after iv administration; assay type: in vivo, BALB/c male mice; details: iv tail vein, 60 mg/kg, 2 hours after administration, brain homogenate supernatant, UHPLC-ESI/MS SIM; Mean ± SD, ten mice; 60 mg/kg
Description: In vivo experiments were performed on BALB/c male mice weighing between 20 and 30 g (the mouse model is widely used for estimation of drug BBB penetration). The animals (obtained from TAZD-CBU) were kept in a 12-hour day and night cycle at room temperature (20–22 °C), humidity 55–56% and fed with a standard diet and water ad libitum for at least 1 week before the experiment. Body temperature and weight were recorded on a regular daily schedule. It is confirmed that all procedures were carried out according to the guidelines outlined by the European Community Council Directive 2010/63/EEC, and they were approved by the local Ethical Committee Resolution 26/2014 (Bydgoszcz, Poland).
The experiments in this section also involved the mouse model described above. […] Similarly to what was stated previously, the mice were sacrificed 2 hours after the administration of the compounds. Their brains were removed immediately from the cranium and weighed. Next, they were homogenized mechanically in the ice and frozen at −80 °C.
Each homogenized mouse brain was centrifuged at 15 000 × g for 10 min. The supernatant was diluted with deionised water (Millipore), filtered (PTFE 0.22 μm filter) and analyzed by UHPLC-ESI/MS with the use of Shimadzu Nexera X2 UHPCL chromatograph and Shimadzu LCMS-2020 mass detector. […]

[3] = microbroth dilution, 96-well, resazurin, 37 °C, 24 h, mean ± SD, at least three independent experiments in triplicates, listed as Van-HCl
[4] = same test as μM value, mean ± SD
[5] = Staphylococcus aureus, MRSA, 24 h, microbroth dilution, 96-well, resazurin, 37 °C, 24 h, mean ± SD, at least three independent experiments in triplicates, read-out: MIC
[6] = Staphylococcus aureus, MRSA, raw MIC, first block, test a, repetition 1, read-out: MIC1a
[7] = Staphylococcus aureus, MRSA, raw MIC, first block, test a, repetition 2, read-out: MIC2a
[8] = Staphylococcus aureus, MRSA, raw MIC, first block, test a, repetition 3, read-out: MIC3a
[9] = Staphylococcus aureus, MRSA, raw MIC, first block, test b, repetition 1, read-out: MIC1b
[10] = Staphylococcus aureus, MRSA, raw MIC, first block, test b, repetition 2, read-out: MIC2b
[11] = Staphylococcus aureus, MRSA, raw MIC, first block, test b, repetition 3, read-out: MIC3b
[12] = Staphylococcus aureus, MRSA, raw MIC, test a, repetition 1, read-out: MIC1a
[13] = Staphylococcus aureus, MRSA, raw MIC, test a, repetition 2, read-out: MIC2a
[14] = Staphylococcus aureus, MRSA, raw MIC, test a, repetition 3, read-out: MIC3a
[15] = Staphylococcus aureus, MRSA, raw MIC, test b, repetition 1, read-out: MIC1b
[16] = Staphylococcus aureus, MRSA, raw MIC, test b, repetition 2, read-out: MIC2b
[17] = Staphylococcus aureus, MRSA, raw MIC, test b, repetition 3, read-out: MIC3b

For `CN[C@H](CC(C)C)C(=O)N[C@H]1C(=O)N[C@@H](CC(N)=O)C(=O)N[C@H]2C(=O)N[C@H]3C(=O)N[C@H](C(=O)N[C@H](C(=O)O)c4cc(O)cc(O)c4-c4cc3ccc4O)[C@H](O)c3ccc(c(Cl)c3)Oc3cc2cc(c3O[C@@H]2O[C@H](CO)[C@@H](O)[C@H](O)[C@H]2O[C@H]2C[C@](C)(N)[C@H](O)[C@H](C)O2)Oc2ccc(cc2Cl)[C@H]1O` [Van, vancomycin, reference compound], the MIC ([1]; Staphylococcus aureus, 24 h, microbroth dilution, 96-well, resazurin, 37 °C, 24 h, mean ± SD, at least three independent experiments in triplicates, read-out: MIC) was 4.1 µM (≈ 5.94 µg/mL), the MIC ([1]; Staphylococcus aureus, raw MIC, first block, test a, repetition 1, read-out: MIC1a) was 4.07 µM (≈ 5.9 µg/mL) and the MIC ([1]; Staphylococcus aureus, raw MIC, first block, test a, repetition 2, read-out: MIC2a) was 4.07 µM (≈ 5.9 µg/mL). It also gave an MIC ([1]; Staphylococcus aureus, raw MIC, first block, test a, repetition 3, read-out: MIC3a) of 4.07 µM (≈ 5.9 µg/mL), an MIC ([1]; Staphylococcus aureus, raw MIC, first block, test b, repetition 1, read-out: MIC1b) of 2.03 µM (≈ 2.94 µg/mL) and an MIC ([1]; Staphylococcus aureus, raw MIC, first block, test b, repetition 2, read-out: MIC2b) of 4.07 µM (≈ 5.9 µg/mL). It also gave an MIC ([1]; Staphylococcus aureus, raw MIC, first block, test b, repetition 3, read-out: MIC3b) of 2.03 µM (≈ 2.94 µg/mL), an MIC ([1]; Staphylococcus aureus, raw MIC, test a, repetition 1, read-out: MIC1a) of 6.05 µM (≈ 8.77 µg/mL) and an MIC ([1]; Staphylococcus aureus, raw MIC, test a, repetition 2, read-out: MIC2a) of 6.05 µM (≈ 8.77 µg/mL). For the same compound, the MIC ([1]; Staphylococcus aureus, raw MIC, test a, repetition 3, read-out: MIC3a) was 6.05 µM (≈ 8.77 µg/mL), the MIC ([1]; Staphylococcus aureus, raw MIC, test b, repetition 1, read-out: MIC1b) was 3.03 µM (≈ 4.39 µg/mL) and the MIC ([1]; Staphylococcus aureus, raw MIC, test b, repetition 2, read-out: MIC2b) was 6.05 µM (≈ 8.77 µg/mL). The MIC ([1]; Staphylococcus aureus, raw MIC, test b, repetition 3, read-out: MIC3b) was 3.03 µM (≈ 4.39 µg/mL), the “MIC” value [1, 3] was 4.1 ± 1.1 µM (≈ 5.94 µg/mL) and the “MIC in (μg/ml)” value [1, 4] was 6.1 ± 1.6 µg/mL (≈ 4.21 µM). For the same compound, the MIC (S. aureus MRSA 12673; [5]) was 4.1 µM (≈ 5.94 µg/mL), the MIC (S. aureus MRSA 12673; [6]) was 4.07 µM (≈ 5.9 µg/mL) and the MIC (S. aureus MRSA 12673; [7]) was 2.03 µM (≈ 2.94 µg/mL). For the same compound, the MIC (S. aureus MRSA 12673; [8]) was 4.07 µM (≈ 5.9 µg/mL), the MIC (S. aureus MRSA 12673; [9]) was 4.07 µM (≈ 5.9 µg/mL) and the MIC (S. aureus MRSA 12673; [10]) was 2.03 µM (≈ 2.94 µg/mL). It also gave an MIC (S. aureus MRSA 12673; [11]) of 4.07 µM (≈ 5.9 µg/mL), an MIC (S. aureus MRSA 12673; [12]) of 6.05 µM (≈ 8.77 µg/mL) and an MIC (S. aureus MRSA 12673; [13]) of 3.03 µM (≈ 4.39 µg/mL). It also gave an MIC (S. aureus MRSA 12673; [14]) of 6.05 µM (≈ 8.77 µg/mL), an MIC (S. aureus MRSA 12673; [15]) of 6.05 µM (≈ 8.77 µg/mL) and an MIC (S. aureus MRSA 12673; [16]) of 3.03 µM (≈ 4.39 µg/mL). The MIC (S. aureus MRSA 12673; [17]) was 6.05 µM (≈ 8.77 µg/mL), the “MIC” value (S. aureus MRSA 12673; [3]) was 4.1 ± 1.1 µM (≈ 5.94 µg/mL) and the “MIC in (μg/ml)” value (S. aureus MRSA 12673; [4]) was 6.1 ± 1.6 µg/mL (≈ 4.21 µM). The MIC (S. aureus MRSA N315; [5]) was 2 µM (≈ 2.9 µg/mL), the MIC (S. aureus MRSA N315; [6]) was 2 µM (≈ 2.9 µg/mL) and the MIC (S. aureus MRSA N315; [7]) was 1 µM (≈ 1.45 µg/mL). It also gave an MIC (S. aureus MRSA N315; [8]) of 2 µM (≈ 2.9 µg/mL), an MIC (S. aureus MRSA N315; [9]) of 2 µM (≈ 2.9 µg/mL) and an MIC (S. aureus MRSA N315; [10]) of 2 µM (≈ 2.9 µg/mL). It also gave an MIC (S. aureus MRSA N315; [11]) of 1 µM (≈ 1.45 µg/mL), an MIC (S. aureus MRSA N315; [12]) of 2.97 µM (≈ 4.3 µg/mL) and an MIC (S. aureus MRSA N315; [13]) of 1.49 µM (≈ 2.16 µg/mL). It also gave an MIC (S. aureus MRSA N315; [14]) of 2.97 µM (≈ 4.3 µg/mL), an MIC (S. aureus MRSA N315; [15]) of 2.97 µM (≈ 4.3 µg/mL) and an MIC (S. aureus MRSA N315; [16]) of 2.97 µM (≈ 4.3 µg/mL). The MIC (S. aureus MRSA N315; [17]) was 1.49 µM (≈ 2.16 µg/mL), the “MIC” value (S. aureus MRSA N315; [3]) was 2.0 ± 0.5 µM (≈ 2.9 µg/mL) and the MIC (S. aureus MRSA N315; microbroth dilution, 96-well, resazurin, 37 °C, 24 h, mean ± SD, at least three independent experiments in triplicates, read-out: MIC) was 2 µM (≈ 2.9 µg/mL). For the same compound, the “MIC in (μg/ml)” value (S. aureus MRSA N315; [4]) was 3.0 ± 0.7 µg/mL (≈ 2.07 µM) and the “Brain concentrations of Van” value [2] was 11 nM and 11 ± 2 nM.
